Measurements from PMC6579470, “A low-potential terminal oxidase associated with the iron-only nitrogenase from the nitrogen-fixing bacterium Azotobacter vinelandii” (The Journal of Biological Chemistry, 2019).

Legend:
Anf3 = target: T1, Anf3 (Azotobacter vinelandii, UniProt C1DK98); assay: X-ray crystal structure of the complex; format: binding; settings: protein isolated with bound FAD; FAD stacks on heme; crystals at 16 °C, 25.5% PEG 4000, 170 mM ammonium sulfate
T1 construct: gene Avin_49040; full-length anf3, N-terminal His6 tag cut off with thrombin; E. coli KRX; intertwined homodimer; cofactors contact both monomers

[1] = target: Anf3 from Azotobacter vinelandii (Azotobacter vinelandii); assay: crystal structure; hanging-drop vapor diffusion, 25.5% PEG 4000, 170 mM ammonium sulfate, 16 °C; space group P2(1); the asymmetric unit contains a dimer

T1 sequence (C1DK98 entry or part of it): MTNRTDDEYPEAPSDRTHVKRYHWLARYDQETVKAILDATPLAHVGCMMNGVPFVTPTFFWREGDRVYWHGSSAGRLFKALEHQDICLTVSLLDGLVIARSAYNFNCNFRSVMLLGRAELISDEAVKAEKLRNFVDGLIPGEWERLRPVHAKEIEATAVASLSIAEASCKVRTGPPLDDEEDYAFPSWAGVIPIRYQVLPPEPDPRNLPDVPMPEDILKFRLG

stoichiometry N [1] | Compound | X-ray crystal structure of the complex (Anf3)
 | Cc1cc2nc3c(=O)[nH]c(=O)nc-3n(C[C@H](O)[C@H](O)[C@H](O)COP(=O)(O)OP(=O)(O)OC[C@H]3O[C@@H](n4cnc5c(N)ncnc54)[C@H](O)[C@@H]3O)c2cc1C [FAD] | Each monomer core is a split-barrel flavin-binding domain that binds an FAD
2 | Anf3 from Azotobacter vinelandii (enzyme) | 
